Experimental data from US11179438B1, “Chicken cathelicidins as a cancer therapy” (King Abdulaziz University, priority 2021, dated 2021).
Where two headings read alike, the source gives them in different places. Ends that are not written are not given here.

How the values were obtained:
[1] = tested on: breast (MCF-7) and colon cancer (HCT116) cell lines; assay type: cell-based, human; details: for survival rate / decline in the cell growth: 48 h; for survival rate: cell line not stated; for decline in the cell growth: 40 μg/ml, both cell lines; for growth: 72 h incubation, high concentration for cathelicidin-2 and -3, breast and colon cancer cell lines
Experimental: (§1) The breast (MCF-7) and colon cancer (HCT116) cell lines were purchased from the American Type Culture Collection (Manassas, Va., USA) and maintained at 37° C. in a 1:1 mixture of Dulbecco's modified Eagle's medium DMEM high glucose (4.5 g/L) supplemented with 10% FBS in Corning®T75 flasks containing 1.2 g/l sodium bicarbonate (Sigma-Aldrich, St. Louis, Mo., USA), 2.5 mM L-glutamine (Invitrogen Life Technologies), 15 mM HEPES, and 0.5 mM sodium pyruvate supplemented with 400 ng/ml hydrocortisone (Sigma-Aldrich) and 10% fetal bovine serum (PAA Laboratories, Pasching, Austria) in a humidity incubator with 5% CO2 and 95% air. The culture medium was refreshed every 2-3 days for a period of 5-7 days to allow for recovery from cryopreservation and for confluency to be reached. For cell subculturing, the cells were digested with 0.25% trypsin and 0.03% EDTA solution (Invitrogen Life Technologies). Upon reaching 90% confluency, cell numbers were counted. The density of cells was 5 λ103 cells/cm^2. After that, the MCF-7 cells were seeded into three 96 well plates and treated with three chicken cathelicidins peptides for three period of incubations (24 h-48 h-72 h) (Li et al., 2014).
(§2) To assess the altered cell viability, Cell Counting Kit-8 (CCK-8) assay (Dojindo Laboratories, Kumamoto, Japan) was performed. Briefly, the cells were seeded in 96-well plates at 5×10^3 cells/well containing 180 μl of medium and cultured for up to 72 h. At the end of each experiment, 5 μl of CCk-8 solution (5 mg/ml) was added into each well, and the cells were incubated for 2 h at 37° C. The optical density value was measured by using BioTek microplate reader (Dynatech Laboratories Inc., Chantilly, Va., USA) at 450 nm. The median inhibition concentration (IC50) values were calculated using the probity model, and the inhibition rate of cell proliferation was calculated as: inhibition rate (%)=1−A450 (test)/A450 (control)×100%. Data were calculated from three independent experiments, each performed in triplicate (Li et al., 2014).

[2] = tested on: breast cancer cells (MCF-7); assay: Cell viability assay (CCK-8), MCF-7; assay type: cell-based, human; details: 72 h
Experimental: as §1, §2

[3] = tested on: human colon cancer cell line (HCT116); assay: Cell viability assay (CCK-8), HCT116; assay type: cell-based; details: 72 h
Experimental: as §1, §2

[4] = tested on: Caspase-3 gene; assay: Expression of caspase-3 gene in MCF-7 cells (RT-PCR); assay type: cell-based, human
Experimental: (§3) Total RNA was isolated from MCF-7 cells after chicken cathelicidins treatment using EZ RNA Clean Up Plus DNase Kit (EZ BioResearch, St Louis, Mo., USA)) following the manufacturer's instructions. RT-PCR was performed by using 1 μg of total RNA samples in the Access RT-PCR System (Bioneer Corporation Co., Ltd, South Korea) under the following conditions: first-strand DNA was synthesized with 12 cycles at 37° C. for 10 sec, 48° C. for 4 min and 60° C. for 30 sec and finally, heat inactivation at 95° C. for 5 mins then denatured at 94° C. for 5 min for the first cycle but for 30 sec for the additional 35 cycles; annealing according to Table 2 for 30 sec and extension at 72° C. for 2 min; and a final extension at 72° C. for 10 min. The PCR products were then subjected to electrophoresis in a 1.2% agarose gel and stained with ethidium bromide.
(§4) For RT-qPCR, cDNA was synthesized by using 0.5 μg of total RNA with a SuperScriptIII® Cells Direct cDNA Synthesis kit (Bioneer, Inc, Daejeon, Republic of Korea). The levels of IL-18, cyclin D1, cyclin A1, caspase-3 and 7 mRNA were amplified in triplicate using the SYBR-Green® Real-time PCR master mix (Biotool LLC, Houston, Tex., USA) on a LightCycler®480 Real-Time PCR system (Roche, Basel, Switzerland). […] The relative levels of gene expression were quantified by using the comparative CT method of ^−ΔΔCt (Livak and Schmittgen, 2001).

[5] = tested on: Caspase-7 gene; assay: Expression of caspase-7 gene in MCF-7 cells (RT-PCR); assay type: cell-based, human
Experimental: as §3, §4

[6] = moderate concentration (20 μg/ml)

Row | Molecule | survival rate ([1]; low concentration (10 μg/ml)) | survival rate ([1]; moderate concentration (printed 10 μg/ml)) | development rate ([2]; low concentration) | development rate [2, 6] | development rate ([3]; low concentration) | development rate [3, 6] | decline in the cell growth [1] | growth [1] | caspase-3 gene expression relative to untreated cells [4] | caspase-7 gene expression relative to untreated cells [5]
1 | CC[C@H](C)[C@H](NC(=O)[C@H](CCCCN)NC(=O)[C@H](CCC(=O)O)NC(=O)[C@H](CCCCN)NC(=O)[C@H](CO)NC(=O)[C@H](CCCCN)NC(=O)[C@H](CCCNC(=N)N)NC(=O)[C@H](Cc1ccccc1)NC(=O)[C@H](Cc1ccccc1)NC(=O)[C@H](CC(=O)O)NC(=O)CNC(=O)[C@H](CC(C)C)NC(=O)[C@@H](N)CC(C)C)C(=O)NCC(=O)N[C@@H](CCCCN)C(=O)N[C@@H](CCC(=O)O)C(=O)N[C@@H](Cc1ccccc1)C(=O)N[C@@H](CCCCN)C(=O)N[C@@H](CCCNC(=N)N)C(=O)N[C@H](C(=O)N[C@H](C(=O)N[C@@H](CCC(N)=O)C(=O)N[C@@H](CCCNC(=N)N)C(=O)N[C@H](C(=O)N[C@@H](CCCCN)C(=O)N[C@@H](CC(=O)O)C(=O)N[C@@H](Cc1ccccc1)C(=O)N[C@@H](CC(C)C)C(=O)N[C@@H](CCCNC(=N)N)C(=O)N[C@@H](CC(N)=O)C(=O)N[C@@H](CC(C)C)C(=O)N[C@H](C(=O)N1CCC[C@H]1C(=O)N[C@@H](CCCNC(=N)N)C(=O)N[C@H](C(=O)N[C@@H](CCC(=O)O)C(=O)N[C@@H](CO)C(=O)O)[C@@H](C)O)C(C)C)[C@@H](C)CC)C(C)C)[C@@H](C)CC [Cathelicidin-1] | 25% | 12% | – | – | – | – | – | – | – | –
2 | RFGRFLRKIRRFRPKVTITIQGSARF [Cathelicidin-2] | – | – | 72% | 44% | 61.3% | 24% | 10% | 7% | two times greater | two-fold
3 | RVKRFWPLVPVAINTVAAGINLYKAIRRK [Cathelicidin-3] | – | – | 73% | 73% | 65% | 43.5% | about 7% | 16% | two times greater | two-fold
